Where a SMILES comes first, the peptide text is derived from it. Where no end group is shown, it is not given here. [ ]: non-standard residue; d: D form.
The molecules below were run against T1, ComD receptor (Streptococcus constellatus, UniProt O33616) (assay: not given). Conditions: not given.
Type: cell-based
ASRIRMGFDFSKLFGK [CSP D1A] was tested, and the IC50 was 120 nM.

What follows are molecules tested against T1, ComD receptor (assay: Luciferase reporter activation). Conditions: not given.
Type: cell-based
`CC[C@H](C)[C@H](NC(=O)[C@H](CCCNC(=N)N)NC(=O)[C@H](CO)NC(=O)[C@H](N)CC(=O)O)C(=O)N[C@@H](CCCNC(=N)N)C(=O)N[C@@H](CCSC)C(=O)NCC(=O)N[C@@H](Cc1ccccc1)C(=O)N[C@@H](CC(=O)O)C(=O)N[C@@H](Cc1ccccc1)C(=O)N[C@@H](CO)C(=O)N[C@@H](CCCCN)C(=O)N[C@@H](CC(C)C)C(=O)N[C@@H](Cc1ccccc1)C(=O)NCC(=O)N[C@@H](CCCCN)C(=O)O` [CSP-d1] (H-[dD]SRIRMGFDFSKLFGK-OH) showed an EC50 of 9.7 nM.
Work on `CC[C@H](C)[C@H](NC(=O)[C@H](CCCNC(=N)N)NC(=O)[C@H](CO)NC(=O)[C@@H](N)CC(=O)O)C(=O)N[C@@H](CCCNC(=N)N)C(=O)N[C@@H](CCSC)C(=O)NCC(=O)N[C@@H](Cc1ccccc1)C(=O)N[C@@H](CC(=O)O)C(=O)N[C@@H](Cc1ccccc1)C(=O)N[C@@H](CO)C(=O)N[C@@H](CCCCN)C(=O)N[C@@H](CC(C)C)C(=O)N[C@H](Cc1ccccc1)C(=O)NCC(=O)N[C@@H](CCCCN)C(=O)O` [CSP-f14] (H-DSRIRMGFDFSKL[dF]GK-OH) yielded an EC50 of 2 nM.
`CC[C@@H](C)[C@@H](NC(=O)[C@H](CCCNC(=N)N)NC(=O)[C@H](CO)NC(=O)[C@@H](N)CC(=O)O)C(=O)N[C@@H](CCCNC(=N)N)C(=O)N[C@@H](CCSC)C(=O)NCC(=O)N[C@@H](Cc1ccccc1)C(=O)N[C@@H](CC(=O)O)C(=O)N[C@@H](Cc1ccccc1)C(=O)N[C@@H](CO)C(=O)N[C@@H](CCCCN)C(=O)N[C@@H](CC(C)C)C(=O)N[C@@H](Cc1ccccc1)C(=O)NCC(=O)N[C@@H](CCCCN)C(=O)O` [CSP-i4] (H-DSR[dI]RMGFDFSKLFGK-OH) gave an EC50 of 25 nM.
Molecule `CC[C@H](C)[C@H](NC(=O)[C@H](CCCNC(=N)N)NC(=O)[C@H](CO)NC(=O)[C@@H](N)CC(=O)O)C(=O)N[C@@H](CCCNC(=N)N)C(=O)N[C@@H](CCSC)C(=O)NCC(=O)N[C@@H](Cc1ccccc1)C(=O)N[C@@H](CC(=O)O)C(=O)N[C@@H](Cc1ccccc1)C(=O)N[C@@H](CO)C(=O)N[C@H](CCCCN)C(=O)N[C@@H](CC(C)C)C(=O)N[C@@H](Cc1ccccc1)C(=O)NCC(=O)N[C@@H](CCCCN)C(=O)O` [CSP-k12] (H-DSRIRMGFDFS[dK]LFGK-OH) has an EC50 of 3.7 nM.
With `CC[C@H](C)[C@H](NC(=O)[C@H](CCCNC(=N)N)NC(=O)[C@H](CO)NC(=O)[C@@H](N)CC(=O)O)C(=O)N[C@@H](CCCNC(=N)N)C(=O)N[C@@H](CCSC)C(=O)NCC(=O)N[C@@H](Cc1ccccc1)C(=O)N[C@@H](CC(=O)O)C(=O)N[C@@H](Cc1ccccc1)C(=O)N[C@@H](CO)C(=O)N[C@@H](CCCCN)C(=O)N[C@@H](CC(C)C)C(=O)N[C@@H](Cc1ccccc1)C(=O)NCC(=O)N[C@H](CCCCN)C(=O)O` [CSP-k16] (H-DSRIRMGFDFSKLFG[dK]-OH) the EC50 was 1.7 nM.
`CC[C@H](C)[C@H](NC(=O)[C@H](CCCNC(=N)N)NC(=O)[C@H](CO)NC(=O)[C@@H](N)CC(=O)O)C(=O)N[C@@H](CCCNC(=N)N)C(=O)N[C@@H](CCSC)C(=O)NCC(=O)N[C@@H](Cc1ccccc1)C(=O)N[C@@H](CC(=O)O)C(=O)N[C@@H](Cc1ccccc1)C(=O)N[C@@H](CO)C(=O)N[C@@H](CCCCN)C(=O)N[C@H](CC(C)C)C(=O)N[C@@H](Cc1ccccc1)C(=O)NCC(=O)N[C@@H](CCCCN)C(=O)O` [CSP-l13] (H-DSRIRMGFDFSK[dL]FGK-OH) was tested, and the EC50 was 25 nM.
With `CC[C@H](C)[C@H](NC(=O)[C@H](CCCNC(=N)N)NC(=O)[C@H](CO)NC(=O)[C@@H](N)CC(=O)O)C(=O)N[C@@H](CCCNC(=N)N)C(=O)N[C@H](CCSC)C(=O)NCC(=O)N[C@@H](Cc1ccccc1)C(=O)N[C@@H](CC(=O)O)C(=O)N[C@@H](Cc1ccccc1)C(=O)N[C@@H](CO)C(=O)N[C@@H](CCCCN)C(=O)N[C@@H](CC(C)C)C(=O)N[C@@H](Cc1ccccc1)C(=O)NCC(=O)N[C@@H](CCCCN)C(=O)O` [CSP-m6] (H-DSRIR[dM]GFDFSKLFGK-OH) the EC50 was 35 nM.
`CC[C@H](C)[C@H](NC(=O)[C@@H](CCCNC(=N)N)NC(=O)[C@H](CO)NC(=O)[C@@H](N)CC(=O)O)C(=O)N[C@@H](CCCNC(=N)N)C(=O)N[C@@H](CCSC)C(=O)NCC(=O)N[C@@H](Cc1ccccc1)C(=O)N[C@@H](CC(=O)O)C(=O)N[C@@H](Cc1ccccc1)C(=O)N[C@@H](CO)C(=O)N[C@@H](CCCCN)C(=O)N[C@@H](CC(C)C)C(=O)N[C@@H](Cc1ccccc1)C(=O)NCC(=O)N[C@@H](CCCCN)C(=O)O` [CSP-r3] (H-DS[dR]IRMGFDFSKLFGK-OH) gave an EC50 of 13 nM.
With `CC[C@H](C)[C@H](NC(=O)[C@H](CCCNC(=N)N)NC(=O)[C@H](CO)NC(=O)[C@@H](N)CC(=O)O)C(=O)N[C@H](CCCNC(=N)N)C(=O)N[C@@H](CCSC)C(=O)NCC(=O)N[C@@H](Cc1ccccc1)C(=O)N[C@@H](CC(=O)O)C(=O)N[C@@H](Cc1ccccc1)C(=O)N[C@@H](CO)C(=O)N[C@@H](CCCCN)C(=O)N[C@@H](CC(C)C)C(=O)N[C@@H](Cc1ccccc1)C(=O)NCC(=O)N[C@@H](CCCCN)C(=O)O` [CSP-r5] (H-DSRI[dR]MGFDFSKLFGK-OH) the EC50 was 47 nM.
Molecule `CC[C@H](C)[C@H](NC(=O)[C@H](CCCNC(=N)N)NC(=O)[C@@H](CO)NC(=O)[C@@H](N)CC(=O)O)C(=O)N[C@@H](CCCNC(=N)N)C(=O)N[C@@H](CCSC)C(=O)NCC(=O)N[C@@H](Cc1ccccc1)C(=O)N[C@@H](CC(=O)O)C(=O)N[C@@H](Cc1ccccc1)C(=O)N[C@@H](CO)C(=O)N[C@@H](CCCCN)C(=O)N[C@@H](CC(C)C)C(=O)N[C@@H](Cc1ccccc1)C(=O)NCC(=O)N[C@@H](CCCCN)C(=O)O` [CSP-s2] (H-D[dS]RIRMGFDFSKLFGK-OH) has an EC50 of 7.9 nM.
Work on DARIRMGFDFSKLFGK [CSP S2A] yielded an EC50 of 5.6 nM.
Molecule DSRARMGFDFSKLFGK [CSP I4A] has an EC50 of 0.089 nM.
DSRIAMGFDFSKLFGK [CSP R5A] showed an EC50 of 4.8 nM.
In the case of DSRIRAGFDFSKLFGK [CSP M6A], the EC50 is reported as 1.9 nM.
In the case of DSRIRMGFDFSKLFGA [CSP K16A], the EC50 is reported as 2.5 nM.
With “DSRIRMGFDFSKLFGK [Native CSP, reference compound]” the EC50 was 5.2 nM.

Same assay, conditions: ΔcomC PcomX::luc reporter, agonism screening
DSAIRMGFDFSKLFGK [CSP R3A] was tested, and the “QS activation (result in words)” value was “complete loss of function”.
For DSRIRMGFDFSKLAGK [CSP F14A], the “QS activation (result in words)” value was “abolished QS activation”.

Reference: paper PMC12266337 (Biochemistry, 2025)
